From patent US4180559A, “Coated 1-(2-chlorodibenzo[b,f]oxepin-10-yl)-4-methylpiperazine compositions” (Richardson-Merrell Inc., priority 1978, dated 1979)
≈ marks a conversion by molar mass, not a printed value. Entries after “also recorded” stand apart in the source; their conditions may differ. Like-named read-outs stand apart in the source and are kept apart here.

Tests used:
[1] = Solubility of the compound in aqueous solutions and in 50% methanol-water at various pH; type: physicochemical
Excerpt: On the other hand, if the drug is exposed to the relatively alkaline portions of the intestinal tract, i.e., a pH greater than 7.5, the drug remains undissolved and is unavailable for absorption in humans.

[2] = Acid hydrolysis / half-life of the compound at various pH and temperature; type: physicochemical; settings: for half-life: 50% methanol-water
Excerpt: However, paradoxically, under the acidic conditions of maximum dissolution and absorption, the drug substance is itself the most labile from a chemical point of view. As previously indicated, the compound belongs to a class of enamines that are readily hydrolyzed under acidic aqueous conditions.

[3] = Anti-psychotic properties and liabilities (general statement)
[4] = Absorption into the bloodstream (general statement); settings: uncoated drug; degradation at low pH in the stomach

solubility ([1]; 50% methanol-water system, pH 8.0): totally insoluble | solubility ([1]; aqueous solution, pH 1.0, read-out: solubility): 20000 µg/mL (≈ 61.2 mM) | solubility ([1]; aqueous solution, pH 3.0, read-out: solubility): 15000 µg/mL (≈ 45.9 mM) | solubility ([1]; aqueous solution, pH 4.3, read-out: solubility): 4000 µg/mL (≈ 12.2 mM) | solubility ([1]; aqueous solutions, pH greater than 7.5): insoluble | solubility ([1]; organic solvent or mixture, 50% methanol-water system, pH 7.0, read-out: solubility): 2000 µg/mL (≈ 6.12 mM) | half-life ([2]; pH 1.5, 25° C., pH 1.5, 50% (v/v) methanol-water): 0.12 h | half-life ([2]; pH 1.5, 37° C., pH 1.5): 0.12 h | half-life ([2]; pH 6, 25° C., pH 6.0, 50% (v/v) methanol-water): 269 h | half-life ([2]; pH 6, 37° C., pH 6.0): 159 h | acid lability ([2]; aqueous conditions): high degree of acid lability | extrapyramidal liabilities [3]: minimal | absorption into the bloodstream [4]: poor and erratic absorption
Structure (SMILES): CN1CCN(C2=Cc3cc(Cl)ccc3Oc3ccccc32)CC1 [1-(2-Chlorodibenzo[b,f]oxepin-10-yl)-4-methylpiperazine]
anti-psychotic properties [3]: potent anti-psychotic properties; also recorded: particularly useful antipsychotic properties | cardiovascular liabilities [3]: minimal
